# Measured values taken from patent US20250296934A1, “AZEPINOINDOLES AND METHODS OF PREPARATION THEREOF” (priority 2022, published 2025).
# Like-named read-outs stand apart in the source and are kept apart here.
# What was measured:
# 5-HT2A [1] = target: T1, 5-HT2A (Homo sapiens, UniProt P28223); experiment: 5-HT2A Gq dissociation BRET functional assay; type: cell-based; set-up: expressed in transfected cells; host or cells: HEK293T; conditions: for 5-HT2A BRET Eff: normalized to % 5-HT stimulation
# T1 sequence (P28223 whole entry): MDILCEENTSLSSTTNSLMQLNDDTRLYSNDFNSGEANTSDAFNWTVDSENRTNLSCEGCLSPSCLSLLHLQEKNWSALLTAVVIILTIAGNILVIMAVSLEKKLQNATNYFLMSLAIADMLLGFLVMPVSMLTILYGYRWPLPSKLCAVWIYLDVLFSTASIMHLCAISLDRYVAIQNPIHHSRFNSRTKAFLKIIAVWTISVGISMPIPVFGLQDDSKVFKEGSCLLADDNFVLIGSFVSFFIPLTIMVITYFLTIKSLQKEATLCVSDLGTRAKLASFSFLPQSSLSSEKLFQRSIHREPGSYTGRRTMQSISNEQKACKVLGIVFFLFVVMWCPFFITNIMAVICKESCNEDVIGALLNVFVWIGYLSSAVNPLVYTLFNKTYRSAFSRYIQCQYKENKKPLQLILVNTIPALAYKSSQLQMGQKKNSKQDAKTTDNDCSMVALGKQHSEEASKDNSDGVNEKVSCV
# 5-HT2B [2] = target: T2, 5-HT2B (Homo sapiens, UniProt P41595); experiment: 5-HT2B Gq dissociation BRET functional assay; type: cell-based; set-up: expressed in transfected cells; host or cells: HEK293T; conditions: for 5-HT2B BRET Eff: normalized to % 5-HT stimulation
# Target sequence in this assay (P41595 whole entry): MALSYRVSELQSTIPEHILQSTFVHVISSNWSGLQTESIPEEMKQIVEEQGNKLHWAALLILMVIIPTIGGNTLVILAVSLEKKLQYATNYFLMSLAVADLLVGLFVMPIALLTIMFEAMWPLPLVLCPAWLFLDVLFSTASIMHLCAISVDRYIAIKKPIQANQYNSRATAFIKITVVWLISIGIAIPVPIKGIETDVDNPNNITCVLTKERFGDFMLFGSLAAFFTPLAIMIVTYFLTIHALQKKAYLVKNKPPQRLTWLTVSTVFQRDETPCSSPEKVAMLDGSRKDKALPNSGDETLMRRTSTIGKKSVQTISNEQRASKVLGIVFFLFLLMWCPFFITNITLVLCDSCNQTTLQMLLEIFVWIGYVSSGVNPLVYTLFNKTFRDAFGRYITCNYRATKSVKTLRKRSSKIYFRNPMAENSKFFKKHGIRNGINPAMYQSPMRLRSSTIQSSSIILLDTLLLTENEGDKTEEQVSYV
# hepatocyte [3] = experiment: In vitro hepatocyte clearance, human; type: in vitro ADME; conditions: Human
# Description: (§1) Additional experimentation was performed on compounds 1, W5, and A93. Table 6a, 6b and 6c summarize, among other things, the anticipated hepatic clearance of compounds 1, W5 and A93 respectively, in various species, as specified in Table 6a, 6b and 6c and as determined by calculating the in vitro hepatocyte clearance over time and scaling such rate with such species' hepatocyte count and the anticipated liver blood flow rate in such species.
# [4] = In vitro hepatocyte clearance, human; type: in vitro ADME; conditions: Human hepatocytes; for half-life: read-out: In vitro T1/2; for CLint scaled: read-out: Scale-up Clint
# Description: as §1
# hepatocyte [5] = experiment: In vitro hepatocyte clearance, mouse; type: in vitro ADME; conditions: Mouse
# Description: as §1
# [6] = In vitro hepatocyte clearance, mouse; type: in vitro ADME; conditions: Mouse hepatocytes; for half-life: read-out: In vitro T1/2; for CLint scaled: read-out: Scale-up Clint
# Description: as §1
# 5-HT2C = target: T3, 5-HT2C (Homo sapiens, UniProt P28335); experiment: cell-based; type: cell-based; set-up: expressed in transfected cells; host or cells: HEK293T; conditions: for EC50: Gq dissociation BRET, HEK293T
# T3 sequence (P28335 33-458): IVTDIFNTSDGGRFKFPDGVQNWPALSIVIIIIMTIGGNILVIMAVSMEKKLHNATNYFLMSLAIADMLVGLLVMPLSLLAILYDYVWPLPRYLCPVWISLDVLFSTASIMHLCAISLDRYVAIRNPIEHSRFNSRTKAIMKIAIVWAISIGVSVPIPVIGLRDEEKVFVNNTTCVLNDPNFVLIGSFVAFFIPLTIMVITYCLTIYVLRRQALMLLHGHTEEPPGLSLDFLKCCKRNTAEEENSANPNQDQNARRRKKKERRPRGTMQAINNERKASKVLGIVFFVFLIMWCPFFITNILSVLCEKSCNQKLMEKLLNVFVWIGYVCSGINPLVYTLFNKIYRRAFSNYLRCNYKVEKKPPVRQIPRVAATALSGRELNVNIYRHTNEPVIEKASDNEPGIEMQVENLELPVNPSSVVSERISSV
# mice = experiment: Head Twitch Response (HTR) in mice; type: in vivo; conditions: Mus musculus, 1 h, measured over a 60 minute interval
# Description: Head Twitch Response (HTR) was assessed using a head-mounted neodymium magnet and a magnetometer detection coil, as described in Halberstadt et al., Psychopharmacology (Berl.), 2013, 227 (4): 727-739. Table 8 below summarizes the ED50 in head twitch (as measured over a 60 minute interval) in mice as a result of Compound 1 as compared to psilocybin.
# 5-HT1E = 5-HT1E (Homo sapiens, UniProt P28566); experiment: 5-HT receptor activity (Table 3), 5-HT1E; type: cell-based
# 5-HT1E, sequence (P28566 whole entry, species assumed): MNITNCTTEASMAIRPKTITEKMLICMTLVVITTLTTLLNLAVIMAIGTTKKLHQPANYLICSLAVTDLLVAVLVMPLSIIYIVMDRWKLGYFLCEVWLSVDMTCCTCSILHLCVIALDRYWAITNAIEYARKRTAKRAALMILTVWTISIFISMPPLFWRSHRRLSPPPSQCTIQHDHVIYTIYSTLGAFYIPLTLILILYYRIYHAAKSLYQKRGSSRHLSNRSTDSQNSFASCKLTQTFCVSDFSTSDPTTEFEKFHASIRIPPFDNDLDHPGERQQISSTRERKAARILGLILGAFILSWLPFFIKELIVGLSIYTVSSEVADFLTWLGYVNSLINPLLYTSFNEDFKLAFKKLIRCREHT
# 5-HT1B = 5-HT1B (Homo sapiens, UniProt P28222); experiment: 5-HT receptor activity (Table 3), 5-HT1B; type: cell-based
# 5-HT1B, sequence (P28222 whole entry, species assumed): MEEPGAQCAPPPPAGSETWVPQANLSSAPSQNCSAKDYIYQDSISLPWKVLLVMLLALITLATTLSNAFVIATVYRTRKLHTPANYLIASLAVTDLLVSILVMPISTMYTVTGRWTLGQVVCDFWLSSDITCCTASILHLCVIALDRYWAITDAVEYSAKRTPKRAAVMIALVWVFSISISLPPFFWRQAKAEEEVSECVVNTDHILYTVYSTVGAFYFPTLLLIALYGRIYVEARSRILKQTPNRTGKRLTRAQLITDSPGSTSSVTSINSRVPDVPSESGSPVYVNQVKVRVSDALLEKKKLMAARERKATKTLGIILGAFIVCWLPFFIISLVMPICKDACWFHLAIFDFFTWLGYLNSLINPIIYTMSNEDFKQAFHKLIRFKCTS
# 5-HT6 = 5-HT6 (Homo sapiens, UniProt P50406); experiment: 5-HT receptor activity (Table 3), 5-HT6; type: cell-based
# 5-HT6, sequence (P50406 whole entry, species assumed): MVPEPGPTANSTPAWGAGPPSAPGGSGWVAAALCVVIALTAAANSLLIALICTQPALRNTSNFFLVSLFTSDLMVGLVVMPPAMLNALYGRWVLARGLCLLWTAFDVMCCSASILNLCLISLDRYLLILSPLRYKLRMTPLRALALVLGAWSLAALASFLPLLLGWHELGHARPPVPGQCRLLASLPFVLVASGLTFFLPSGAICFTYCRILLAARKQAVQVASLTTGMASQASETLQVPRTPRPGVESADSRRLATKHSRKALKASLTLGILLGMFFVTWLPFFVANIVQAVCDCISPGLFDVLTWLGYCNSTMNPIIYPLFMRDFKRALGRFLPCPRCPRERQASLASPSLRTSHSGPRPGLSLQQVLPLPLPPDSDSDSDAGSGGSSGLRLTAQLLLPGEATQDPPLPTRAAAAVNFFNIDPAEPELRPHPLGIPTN
# 5-HT1A = target: T4, 5-HT1A (Homo sapiens, UniProt P08908); experiment: 5-HT receptor activity (Table 3), 5-HT1A; type: cell-based
# T4 sequence (P08908 1-422): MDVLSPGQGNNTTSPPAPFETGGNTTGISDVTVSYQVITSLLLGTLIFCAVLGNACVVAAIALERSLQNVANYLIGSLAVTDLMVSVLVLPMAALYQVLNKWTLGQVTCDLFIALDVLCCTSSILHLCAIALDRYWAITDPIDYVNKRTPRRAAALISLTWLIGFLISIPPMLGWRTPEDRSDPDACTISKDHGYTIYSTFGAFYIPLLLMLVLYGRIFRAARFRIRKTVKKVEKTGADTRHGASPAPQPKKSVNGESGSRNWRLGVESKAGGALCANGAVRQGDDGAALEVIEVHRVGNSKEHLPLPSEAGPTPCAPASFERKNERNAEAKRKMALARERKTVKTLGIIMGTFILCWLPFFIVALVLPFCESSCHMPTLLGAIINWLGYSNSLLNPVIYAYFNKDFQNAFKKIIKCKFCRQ
# 5-HT7 = 5-HT7 (Homo sapiens, UniProt P34969); experiment: 5-HT receptor activity (Table 3), 5-HT7; type: cell-based
# 5-HT7, sequence (P34969 whole entry, species assumed): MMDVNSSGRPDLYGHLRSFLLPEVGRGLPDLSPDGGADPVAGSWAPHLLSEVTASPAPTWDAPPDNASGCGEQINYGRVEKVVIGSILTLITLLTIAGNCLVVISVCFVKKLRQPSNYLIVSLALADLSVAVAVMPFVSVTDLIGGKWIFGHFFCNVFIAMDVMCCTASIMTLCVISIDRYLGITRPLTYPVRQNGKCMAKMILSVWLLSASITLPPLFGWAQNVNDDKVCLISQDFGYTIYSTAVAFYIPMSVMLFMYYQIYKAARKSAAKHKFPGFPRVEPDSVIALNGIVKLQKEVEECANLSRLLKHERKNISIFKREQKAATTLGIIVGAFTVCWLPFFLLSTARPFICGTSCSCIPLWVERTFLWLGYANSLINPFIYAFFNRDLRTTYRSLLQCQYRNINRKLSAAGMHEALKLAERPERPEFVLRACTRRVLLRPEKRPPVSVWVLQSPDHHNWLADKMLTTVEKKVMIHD
# 5-HT1F = target: T5, 5-HT1F (Homo sapiens, UniProt P30939); experiment: 5-HT receptor activity (Table 3), 5-HT1F; type: cell-based
# T5 sequence (P30939 1-366): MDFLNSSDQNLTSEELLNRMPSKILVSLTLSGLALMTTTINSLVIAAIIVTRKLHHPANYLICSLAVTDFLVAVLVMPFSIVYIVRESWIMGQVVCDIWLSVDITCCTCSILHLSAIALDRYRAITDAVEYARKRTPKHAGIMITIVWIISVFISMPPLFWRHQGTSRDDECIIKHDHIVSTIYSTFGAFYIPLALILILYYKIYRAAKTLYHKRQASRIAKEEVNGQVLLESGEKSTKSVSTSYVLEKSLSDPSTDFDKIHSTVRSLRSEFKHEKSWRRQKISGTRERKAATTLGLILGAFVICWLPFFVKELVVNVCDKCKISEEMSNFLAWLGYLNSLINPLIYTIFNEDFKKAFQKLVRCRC
# 5-HT5A = 5-HT5A (Homo sapiens, UniProt P47898); experiment: 5-HT receptor activity (Table 3), 5-HT5A; type: cell-based
# 5-HT5A, sequence (P47898 whole entry, species assumed): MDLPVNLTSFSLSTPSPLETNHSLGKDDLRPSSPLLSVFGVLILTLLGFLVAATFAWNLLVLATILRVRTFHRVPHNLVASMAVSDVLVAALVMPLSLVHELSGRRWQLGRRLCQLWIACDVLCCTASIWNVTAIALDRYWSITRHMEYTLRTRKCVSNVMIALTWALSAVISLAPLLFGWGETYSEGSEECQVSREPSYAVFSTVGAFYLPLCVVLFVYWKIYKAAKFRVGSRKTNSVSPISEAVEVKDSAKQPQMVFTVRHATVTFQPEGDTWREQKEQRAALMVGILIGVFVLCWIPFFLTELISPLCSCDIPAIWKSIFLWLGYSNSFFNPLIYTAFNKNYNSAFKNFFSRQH
# 5-HT4 = 5-HT4 (Homo sapiens, UniProt Q13639); experiment: 5-HT receptor activity (Table 3), 5-HT4; type: cell-based
# 5-HT4, sequence (Q13639 whole entry, species assumed): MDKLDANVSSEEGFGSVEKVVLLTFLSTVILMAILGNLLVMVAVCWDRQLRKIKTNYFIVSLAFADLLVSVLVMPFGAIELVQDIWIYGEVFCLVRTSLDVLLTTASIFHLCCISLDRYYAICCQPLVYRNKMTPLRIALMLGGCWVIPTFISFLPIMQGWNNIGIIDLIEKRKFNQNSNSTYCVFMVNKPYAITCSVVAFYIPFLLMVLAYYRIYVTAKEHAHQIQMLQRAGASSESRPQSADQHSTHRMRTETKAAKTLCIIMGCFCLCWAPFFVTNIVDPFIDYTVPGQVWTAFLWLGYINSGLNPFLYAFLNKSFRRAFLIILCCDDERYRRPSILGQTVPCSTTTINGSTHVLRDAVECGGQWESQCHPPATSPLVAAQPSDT
# 5-HT2B [7] = target: T2, 5-HT2B; experiment: 5-HT receptor activity (Table 3), 5-HT2B; type: cell-based; conditions: 5-HT2B, Table 3
# Target sequence in this assay (P41595 whole entry, species assumed): as the sequence (P41595 whole entry) above
# 5-HT1D = 5-HT1D (Homo sapiens, UniProt P28221); experiment: 5-HT receptor activity (Table 3), 5-HT1D; type: cell-based
# 5-HT1D, sequence (P28221 whole entry, species assumed): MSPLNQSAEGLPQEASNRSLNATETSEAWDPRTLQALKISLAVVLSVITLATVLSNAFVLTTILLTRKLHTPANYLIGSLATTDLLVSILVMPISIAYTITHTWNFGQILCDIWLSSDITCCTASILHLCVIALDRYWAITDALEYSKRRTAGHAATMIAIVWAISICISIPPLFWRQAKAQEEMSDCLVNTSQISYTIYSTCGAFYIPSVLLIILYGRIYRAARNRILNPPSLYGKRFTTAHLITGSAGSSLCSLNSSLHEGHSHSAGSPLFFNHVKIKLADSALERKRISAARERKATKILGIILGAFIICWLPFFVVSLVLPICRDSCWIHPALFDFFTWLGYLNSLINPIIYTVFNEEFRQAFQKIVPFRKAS
# 5-HT2A [8] = target: T1, 5-HT2A; experiment: 5-HT receptor activity (Table 3), 5-HT2A; type: cell-based; conditions: 5-HT2A, Table 3
# [9] = normalized to % 5-HT stimulation
Compound,EC50 (5-HT2A [1]),5-HT2A BRET Eff (5-HT2A [1]),EC50 (5-HT2B [2]),5-HT2B BRET Eff (5-HT2B [2]),EC50 (5-HT2C),5-HT2C BRET Eff (5-HT2C; [9]),further results
Cc1ccc(O)c2c3c([nH]c12)CCN(C)CC3 [Cpd #14 (W5)],3.9 nM,89%,22.7 nM,25%,1.3 nM,87%,Hepatic Extraction Ratio (E) (hepatocyte [3]): 0.13; Predicted hepatic CL (hepatocyte [3]): 2.74 mL/min/kg; hepatocyte CLint [4]: 1.26 µL/min/1e6 cells; half-life [4]: 20.9 h; CLint scaled [4]: 3.22 mL/min/kg; Hepatic Extraction Ratio (E) (hepatocyte [5]): 0.84; Predicted hepatic CL (hepatocyte [5]): 75.80 mL/min/kg; hepatocyte CLint [6]: 40.7 µL/min/1e6 cells; half-life [6]: 0.568 h; CLint scaled [6]: 480 mL/min/kg
Cc1cc(F)c(O)c2c3c([nH]c12)CCNCC3 [Cpd #27 (A92)],6.2 nM,97%,14 nM,77%,2.8 nM,101%,–
"Cc1cccc2c(CCN(C)C)c[nH]c12 [7,N,N-TMT, reference compound]",–,80%,–,36%,–,79%,"EC50 (5-HT2B [2]; Gq dissociation BRET, HEK293T, read-out: 5-HT2B BRET EC50): 74.3 nM"
Cn1c2c(c3c(O)cccc31)CCNCC2 [Cpd #65 (A95)],5.9 nM,96%,40.3 nM,70%,2.8 nM,93%,–
Cc1ccc(O)c2[nH]c3c(c12)CCNCC3 [Pharm-159],3.5 nM,96%,3 nM,95%,0.17 nM,99%,–
CN1CCc2c(n(C)c3cccc(O)c23)CC1 [Cpd #64 (A96)],15.3 nM,87%,90.9 nM,46%,6.7 nM,79%,–
Oc1cccc2[nH]c3c(c12)CCNCC3 [Cpd #67 (A93)],4 nM,97%,55.7 nM,57%,5.7 nM,94%,Hepatic Extraction Ratio (E) (hepatocyte [3]): <0.25; Predicted hepatic CL (hepatocyte [3]): <5.17 mL/min/kg; hepatocyte CLint [4]: < 2.71 µL/min/1e6 cells; half-life [4]: > 8.53 h; CLint scaled [4]: < 6.89 mL/min/kg; Hepatic Extraction Ratio (E) (hepatocyte [5]): <0.26; Predicted hepatic CL (hepatocyte [5]): <23.60 mL/min/kg; hepatocyte CLint [6]: < 2.71 µL/min/1e6 cells; half-life [6]: > 8.53 h; CLint scaled [6]: < 32 mL/min/kg
CN1CCc2[nH]c3cccc(O)c3c2CC1 [Cpd #66 (A94)],8.1 nM,91%,47.9 nM,28%,18.8 nM,89%,–
Cc1ccc(O)c2c3c([nH]c12)CCN(Cc1ccccc1O)CC3 [Cpd #18 (A90)],31 nM,76%,2.7 nM,−2.6%,24 nM,93%,–
"NCCc1c[nH]c2cccc(O)c12 [4-hydroxytryptamine, reference compound]",–,100%,–,100%,–,–,5-HT2C BRET Eff (5-HT2C): 99%
"CN(C)CCc1c[nH]c2cccc(OP(=O)(O)O)c12 [Psilocybin, psilocybin, reference compound]",–,–,–,–,–,–,ED50 (mice): 0.38 mg/kg
Cc1ccc(O)c2c3c([nH]c12)C(C)CNCC3 (centres unmarked) [Cpd #45 (W8)],6.4 nM,98%,1.3 nM,54%,1.2 nM,99%,–
"CN(C)CCc1c[nH]c2cccc(O)c12 [psilocin, reference compound]",–,82%,–,63%,–,–,Eff (5-HT1E): 90%; Eff (5-HT1B): 94%; Eff (5-HT6): 74%; Eff (5-HT1A): 93%; Eff (5-HT7): 86%; Eff (5-HT1F): 93%; Eff (5-HT5A): 48%; Eff (5-HT4): 81%; Eff (5-HT2B [7]): 32%; Eff (5-HT1D): 102%; Eff (5-HT2A [8]): 80%
